Measured values taken from ChEMBL document CHEMBL2390895, “Design, synthesis and structure activity relationships of spirocyclic compounds as potent CCR1 antagonists” (Bioorg Med Chem Lett, 2013).

Key:
[1] = Clearance in human hepatocytes assessed per 10^6 cells; format: ADME, cell-based, Hepatocyte; details: read-out: CLH
[2] = Clearance in rat hepatocytes assessed per 10^6 cells; format: ADME, cell-based, Hepatocyte; details: read-out: CLH

Row | hepatocyte CLint [1] [µL/min/1e6 cells] | hepatocyte CLint [2] [µL/min/1e6 cells] | SMILES
1 | 14 | – | O=C(c1ccc(O)cc1OC[C@@H](O)CN1CCC2(CC1)Cc1cc(Cl)ccc1O2)N1CCCCC1
2 | < 3 | 8.1 | O=C(c1cc(Cl)c(O)cc1OC[C@@H](O)CN1CCC2(CC1)Cc1cc(Cl)ccc1O2)N1CC[C@H](O)C1
3 | 9.6 | 23 | O=C(c1ccc(O)cc1OC[C@@H](O)CN1CCC2(CC1)Cc1cc(Cl)ccc1O2)N1CCCC1
4 | 5.2 | 45 | O=C(NC1CC1)c1ccccc1OC[C@@H](O)CN1CCC2(CC1)Cc1cc(Cl)ccc1O2
5 | 26 | 22 | CNC(=O)c1ccc(O)cc1OC[C@@H](O)CN1CCC2(CC1)Cc1cc(F)ccc1O2
6 | 11 | – | Cc1ccc(C(=O)N2CC[C@H](O)C2)c(OC[C@@H](O)CN2CCC3(CC2)Cc2cc(Cl)ccc2O3)c1
7 | 15 | – | COc1ccc(C(=O)NC2CC2)c(OC[C@@H](O)CN2CCC3(CC2)Cc2cc(Cl)ccc2O3)c1
8 | < 3 | 6.7 | O=C(c1ccc(O)cc1OC[C@@H](O)CN1CCC2(CC1)Cc1cc(Cl)ccc1O2)N1CC[C@H](O)C1
9 | 10.6 | 28 | O=C(NC1CC1)c1ccc(O)cc1OC[C@@H](O)CN1CCC2(CC1)Cc1cc(Cl)ccc1O2
10 | 6.8 | < 4 | O=C(c1ccc(F)cc1OC[C@@H](O)CN1CCC2(CC1)Cc1cc(Cl)ccc1O2)N1CC[C@H](O)C1
11 | 4.6 | 20 | O=C(NC1CC1)c1ccc(F)cc1OC[C@@H](O)CN1CCC2(CC1)Cc1cc(Cl)ccc1O2
12 | 10 | – | Cc1ccc(C(=O)N2CC[C@H](O)C2)c(OC[C@@H](O)CN2CCC3(CC2)Cc2cc(F)ccc2O3)c1
13 | < 4.6 | 33 | CNC(=O)c1ccc(O)cc1OC[C@@H](O)CN1CCC2(CC1)Cc1cc(Cl)ccc1O2
